Reference: patent US4865840A, “Topical compositions containing selenoamino acids for the prevention of ultraviolet radiation-induced skin damage” (priority 1987, dated 1989)

Columns and labels:
[1] = system: ultraviolet radiation-induced skin damage; assay: protection from UV radiation-induced skin damage (inflammation, i.e. sunburn; skin cancers); type: in vivo
From the text: (§1) This is illustrated in Table 6, where the pigmentation of selenium supplemented mice is reduced.

[2] = system: UV irradiated Skh:2 mice (skin cancers); assay: clinically detectable skin tumors in UV irradiated Skh:2 mice; type: in vivo, female Skh:2 hairless, pigmented mice
From the text: (§2) To determine the effectiveness of selenium supplementation in the form of topical application and oral administration of L-selenomethionine in providing protection for ultraviolet radiation-induced skin damage, 120 BALB-C female mice and 40 female Skh:2 hairless, pigmented, dark-eyed mice were obtained and separated into treatment groups as follows:
During the treatment, the BALB-C mice were shaved on the back one per week. 100 λ of a composition according to the invention in the form of an oil-in-water emulsion location containing 0.02% L-selenomethionine was applied three times a week to the backs and ears of the mice for a period of one week prior to beginning irradiation with ultraviolet light. […]
(§3) To evaluate the effectiveness of the selenium supplementation in protecting against skin cancers and the relative merits of the claimed composition, the total number of clinically detectable skin cancers in each group was counted.

[3] = system: selenium dependent glutathione peroxidase; assay: hepatic activity of Se-dependent glutathione peroxidase (SeGSHpx); type: in vivo, BALBC mice; settings: for liver SeGSHpx: 3 months, mean ± SEM; for SeGSHpx: hepatic, 39 weeks
From the text: as §2
(§4) During the treatment, the BALB-C mice were shaved on the back one per week. 100 λ of a composition according to the invention in the form of an oil-in-water emulsion location containing 0.02% L-selenomethionine was applied three times a week to the backs and ears of the mice for a period of one week prior to beginning irradiation with ultraviolet light. The lotion carrier was formulated from an oil phase containing 21/2% polypropylene glycol-3-myristyl ether, 2% squalane, 0.5% safflower oil, 1% Myrj 52S emulsifier, 0.75% cetyl alcohol, 0.3% SPAN-60, 6.5% Amercol L101, 0.5% Lanocerin, 1% glyceral monostearate, 0.1% preservative, 1% Silicone 200, 1% stearic acid, and 0.5% isostearic acid; and an aqueous phase containing 68.5% distilled water, 0.75% triethanolamine, 5% propylene glycol, 0.3% preservative, 0.1% allantoin, 0.4% Germal II dissolved in 2% water, and 5% of Carbopol 941 (2.5% solution). Each 100 λ application of the composition penetrated the skin within a period of ten minutes. The composition continued to be applied thirty minutes before each thrice weekly irradiation.
(§5) Maintenance exposure times for the BALB-C mice was 50 minutes, while for the Skh:2 mice it was 15 minutes. Irradiation with four Westinghouse FS40 sunlamps was begun at 5 minute exposures, however, and increased by 5 minutes per session for the BALB-C mice and by 2.5 minutes per session for the Skh:2 mice until the respective maintenance exposure level for each type of mouse was reached. The maintenance dose of UV radiation for the BALB-C mice was 0.58 Joules/sq. cm./exposure and for the Skh:2 mice, 0.24 Joules/s. cm./exposure. This irradiation was continued for 28 weeks for the BALB-C mice (about 41 joules/sq. cm. total) and 24 weeks for the Skh:2 mice (about 15 joules/sq. cm. total).
(§6) Since selenium is a co-factor for a free-radical quenching enzyme, glutathione peroxidase, the level of two hepatic free-radical quenching enzymes, selenium dependent glutathione peroxidase and superoxide dismutase were also tested.

[4] = system: UV irradiated BALB-C mice (skin cancers); assay: clinically detectable skin tumors and mortality in UV irradiated and unirradiated BALB-C mice; type: in vivo, BALB-C female mice
From the text: as §2, §4, §5, §3
Tumors greater than 5 mm in size were also considered, but the observed results were inconclusive due to the complicating effect of mortality in irradiated/non-selenium supplemented mice.

[5] = parameters: species or system KH2 (Skh:2) mice; settings: mouse, in vivo
From the text: as §2
as §4, with “Each 100 λ application of the composition penetrated the skin within a period of ten minutes. The composition continued to be applied thirty minutes before each thrice weekly irradiation.” left out
(§7) Throughout the studies, the weights of the mice and the total feed and water intake were monitored.

[6] = selenium levels in skin, plasma/serum and liver after topical application (general statement)
[7] = in vivo
[8] = absorption into treated human skin; type: in vivo; settings: topical
From the text: Topical application of selenoamino acid compositions in accordance with the invention provides a different type of protection than that afforded by conventional sunscreens, such as those containing p-amino benzoic acid, because the selenium is actually absorbed into treated human skin within a period of less than fifteen minutes. Thus, unlike a superficial sunscreen, the protective effect of the selenomethionine is not washed off by, e.g., swimming or sweating. Thus, frequent reapplication is not required to maintain protection, as is the case with known sunscreen products.

[9] = tissue Se in BALBC mice after 3 months; settings: mouse, in vivo; for concentration at 2190 h: tissue Se
From the text: as §2, §4, §5
(§8) After 12 weeks, 6 irradiated and 4 non-irradiated BALB-C mice were sacrificed, and at 39 weeks the remaining BALB-C mice were sacrificed. The liver and skin selenium levels were determined.

[10] = type: in vivo; settings: 100 λ of 0.02% L-selenomethionine oil-in-water lotion, mice
From the text: as §4

[11] = in vivo; parameters: species or system BALBc mice; settings: mouse; for Liver Se / Ventral skin Se / dorsal skin Se: 6552 h
From the text: as §2, §4, §5, §8

[12] = system: pigmentation of Skh:2 mice; assay: Pigmentation of Skh:2 mice after exposure to UV-irradiation; type: in vivo; settings: for Pigmentation score: +4 = dark pigmentation, 0 = no pigmentation
From the text: as §2, §4, §5, §1

[13] = system: superoxide dismutase; assay: hepatic activity of superoxide dismutase (SOD); type: in vivo, BALBc mice; settings: 39 weeks, pH 10.2
Procedure: as §6
^1 SOD was measured by the inihibition of the spontaneous oxidation o
epinephrine at pH 10.2; 1 EU = 50% inhibition.

[14] = toxicity in selenium treated mice (hepatic enzymes, alkaline phosphatase); type: in vivo
[15] = parameters: species or system BALBC mice; settings: mouse, in vivo, po
From the text: as §2
as §4, with “Each 100 λ application of the composition penetrated the skin within a period of ten minutes. The composition continued to be applied thirty minutes before each thrice weekly irradiation.” left out
as §7

[16] = topical; cited from earlier work
[17] = system: UV-induced skin cancer in hairless mice; settings: oral, cited from earlier work
[18] = unirradiated BALB-C, groups 4-6

C[Se]CC[C@H](N)C(=O)O [L-selenomethionine]
protection against less severe UV radiation-induced damage (inflammation i.e. sunburn and pigmentation) ([1]; topical): observed to protect the skin against less severe types of ultraviolet radiation-induced damage such as inflammation i.e. sunburn and pigmentation | incidence of skin cancers following exposure to ultraviolet radiation ([1]; topical application): significantly reduce the incidence of skin cancers | protection against skin cancers (tumors over 3 mm; animals with tumors) ([2]; irradiated Skh:2, topical and oral, FIGS. 4, 5): comparable protection against skin cancers | observations based upon 5 mm tumors ([2]; irradiated Skh:2, control mortality a complicating factor): superior in the selenium-supplemented mice | liver SeGSHpx ([3]; UV +, drinking water, n = 6): 125.69 ± 14.59 nmoles NADPH/min/mg | liver SeGSHpx ([3]; UV +, topical, n = 6): 124.15 ± 10.51 nmoles NADPH/min/mg | liver SeGSHpx ([3]; UV -, drinking water, n = 4): 141.49 ± 18.71 nmoles NADPH/min/mg | liver SeGSHpx ([3]; UV -, topical, n = 4): 160.18 ± 17.36 nmoles NADPH/min/mg | SeGSHpx ([3]; UV +, d.water, n = 20): 114.91 ± 12.20 nmoles NADPH/mg-min | SeGSHpx ([3]; UV +, topical, n = 13): 85.97 ± 9.92 nmoles NADPH/mg-min | SeGSHpx ([3]; UV -, d.water, n = 4): 57.98 ± 10.82 nmoles NADPH/mg-min | SeGSHpx ([3]; UV -, topical, n = 4): 83.30 ± 20.83 nmoles NADPH/mg-min | UV-induced mortality ([4]; irradiated BALB-C, groups 1-3, FIG. 3): clear reduction in UV-induced mortality | protection against skin cancers (tumors over 3 mm; animals with tumors) ([4]; irradiated BALB-C, topical and oral, FIGS. 1, 2): comparable protection against skin cancers | tumors greater than 5 mm ([4]; irradiated BALB-C, complicated by mortality of non-supplemented mice): inconclusive | deaths during the test period [4, 18]: none died | tumors observed during the experimental period [4, 18]: no tumors observed | Feed Intake [5]: 496.5 ± 31.1 g/mouse | Water Intake [5]: 594.6 ± 43.0 g/mouse | toxicity [6]: without toxicity | selenium concentration in the skin in the area of application [7]: higher than that attained using a comparable oral dosage of selenium | selenium levels in the plasma and liver [7]: enhanced levels of selenium in the plasma and liver | selenium levels in the skin [7]: significantly enhanced levels of selenium in the skin | selenium levels in untreated skin, serum and liver [7]: comparable to those in animal receiving oral doses of selenium | time in which selenium is absorbed into treated human skin [8]: less than fifteen | selenium levels in the localized part of the skin treated [9]: preferential increase in selenium levels in the localized part of the skin actually treated | selenium levels in the treated skin [9]: substantially enhanced selenium levels in the treated skin | tissue Se, dorsal skin ([9]; po, 2190 h): .578 ± .061 g/g | tissue Se, ventral skin ([9]; po, 2190 h): .666 ± .046 g/g | concentration at 2190 h ([9]; po, dorsal skin): 913 ± 74 ng/g | concentration at 2190 h ([9]; po, liver): 1600 ± 186 ng/g | concentration at 2190 h ([9]; po, ventral skin): 728 ± 28 ng/g | concentration at 2190 h ([9]; topical or ocular, dorsal skin): 4520 ± 568 ng/g | concentration at 2190 h ([9]; topical or ocular, liver): 2240 ± 353 ng/g | concentration at 2190 h ([9]; topical or ocular, ventral skin): 1860 ± 193 ng/g | time in which the composition penetrated the skin [10]: ten | Liver Se ([11]; po): 1.674 ± .137 ppm | Ventral skin Se ([11]; po): .521 ± .018 ppm | dorsal skin Se ([11]; po): .432 ± .023 ppm | concentration at 6552 h ([11]; po, Liver Se): 1560 ± 84 ng/g | concentration at 6552 h ([11]; po, Ventral skin Se): 508 ± 26 ng/g | concentration at 6552 h ([11]; po, dorsal skin Se): 562 ± 40 ng/g | Liver Se ([11]; topical or ocular): 1.481 ± .156 ppm | Ventral skin Se ([11]; topical or ocular): .777 ± .069 ppm | dorsal skin Se ([11]; topical or ocular): 2.255 ± .582 ppm | concentration at 6552 h ([11]; topical or ocular, Liver Se): 1420 ± 150 ng/g | concentration at 6552 h ([11]; topical or ocular, Ventral skin Se): 843 ± 76 ng/g | concentration at 6552 h ([11]; topical or ocular, dorsal skin Se): 2010 ± 190 ng/g | Pigmentation score ([12]; oral, week 7, no selenium 3.3): 1.7 | Pigmentation score ([12]; oral, week 12, no selenium 3.5): 2.5 | Pigmentation score ([12]; oral, week 16, no selenium 3.6): 2.6 | pigmentation ([12]; selenium supplemented mice, Table 6): reduced | Pigmentation score ([12]; topical, week 7, no selenium 3.3): 2.3 | Pigmentation score ([12]; topical, week 12, no selenium 3.5): 2.7 | Pigmentation score ([12]; topical, week 16, no selenium 3.6): 2.6 | SOD ([13]; UV +, d.water, n = 20, 1 EU = 50% inhibition of epinephrine oxidation): 243 ± 67 EU/g | SOD ([13]; UV +, topical, n = 13, 1 EU = 50% inhibition of epinephrine oxidation): 181 ± 51 EU/g | SOD ([13]; UV -, d.water, n = 4, 1 EU = 50% inhibition of epinephrine oxidation): 109 ± 43 EU/g | SOD ([13]; UV -, topical, n = 4, 1 EU = 50% inhibition of epinephrine oxidation): 88 ± 34 EU/g | toxicity [14]: no evidence of toxicity | effect on feeding habits [15]: little effect on the feeding habits of the mice

S=[Se]=S [Selenium sulfide, selenium sulfide]
skin penetration / selenium levels in the serum or liver [16]: does not penetrate the skin to give increased levels of selenium in the serum or liver

O=[Se](O)O [sodium selenite]
animal growth rate ([17]; decreased weight gain relative to controls): moderate inhibition of animal growth rate | protection against UV-induced skin cancer [17]: dose-dependent selenium protection against UV-induced skin cancer | resistance to acute and sub-acute effects of UV radiation (inflammation and pigmentation) [17]: more resistant to the acute and sub-acute effects of UV radiation
